Where two headings read alike, the source gives them in different places.
Assays:
[1] = tested on: mesenteric artery of a rabbit; assay: Relaxation of Mesenteric Artery (KCl-contracted spiral strip); design: species or system rabbit of Japanese local variety; conditions: Oryctolagus cuniculus
Protocol: A rabbit of Japanese local variety weighing about 3 kg was subjected to blood-letting to death. Then, abdomen of the rabbit was dissected to pick up a mesenteric artery. […] Thus, the shrinkage and relaxation of the artery was ready to be measured as a load on the transducer. To the organ bath, KCl was added in an amount which makes the artery shrink at a half length that in 15 to 20 mM aqueous solution. Then, hydrochlorides of the compounds of the present invention were added to the organ bath to observe relaxation effect on the artery.
Effect of the compounds of the present invention on relaxation of mesenteric artery was examined according to the method as mentioned hereinbefore.

[2] = tested on: male spontaneously hypertensive rats (SHR); assay: Reduction of Blood Pressure (systolic, tail plethysmographic method, oral); type: in vivo, rat (SHR, Wister Kyoto); conditions: 100 mg/kg
Protocol: Male spontaneously hypertensive rats (SHR, Wister Kyoto) weighing 300 to 350 g were used. Systolic blood pressure was measured indirectly by the tail plethysmographic method in conscious SHR, just prior to, and 1, 2, 4 and 6 hours after oral administration of test drugs. Test drugs, dissolved in deionized water, were administered orally in a volume of 10 ml-solution/kg-rat. Reduction in systolic blood pressure (ΔP, mmHg) was calculated by substracting a systolic blood pressure after administration from that just prior to administration.
Effect of the compounds of the present invention on reduction of blood pressure was examined according to the method as mentioned hereinbefore.

[3] = tested on: femoral artery; assay: Blood Flow Volume Increase of Femoral Artery; type: in vivo, Mongrel dogs; conditions: intravenous, 0.3 mg/kg, anesthetized dogs
Protocol: (§1) A plethysmographic probe (manufactured and sold by NIHON KODEN CO., LTD.) was mounted on the femoral and vertebral arteries, and blood flow volume was measured by means of a electromagnetic blood flowmeter (type:MF-27, manufactured and sold by NIHON KODEN CO., LTD.). Under these conditions, compounds of the present invention were intravenously administered through a polyethylene tube inserted to a femoral veinlet, and change in blood flow volume was measured by means of the electromagnetic blood flowmeter.
(§2) Effect of the compounds of the present invention on dilation of femoral and vertebral arteries was examined according to the method as mentioned hereinbefore.

[4] = tested on: vertebral artery; assay: Blood Flow Volume Increase of Vertebral Artery; type: in vivo, Mongrel dogs; conditions: intravenous, 0.3 mg/kg, anesthetized dogs
Protocol: as §1, §2

[5] = tested on: basilar artery; assay: Effect on a "Two-Hemorrhage" Canine Model of Delayed Cerebral Vasospasm; type: in vivo, Mongrel dogs; conditions: intravenous infusion over 30 minutes on Day 7
From the text: The isoquinolinesulfonyl compound represented by the formula (I) and salt thereof with a pharmacologically acceptable acid according to the present invention can increase the diameter of a blood vessel, and have an excellent smooth muscle relaxation action for a blood vessel, an excellent flow volume increase action for blood and an antihypertensive action. […] The above-mentioned relaxation action for a blood vessel was confirmed by the relaxation of the mesenteric artery of a rabbit in accordance with the method described later. The above-mentioned flow volume increase action for blood was confirmed by the blood flow volume increase of dog's femoral and vertebral arteries in accordance with the method described later. The above-mentioned antihypertensive action was confirmed by the indirect tail plethysmographic method of systolic blood pressure after oral administration of test drugs using male spontaneously hypertensive rats in accordance with the method described later. The effects of the isoquinolinesulfonyl derivatives of this invention on a "two-hemorrhage" canine model of delayed cerebral vasospasm were examined. The method of inducing a cerebral vasospasm was the same as that reported by Varsos et al. (Journal of Neurosurgery, volume 58, p11-17, 1983). […] As far as is known, these isoquinolinesulfonyl derivatives are the first drugs which can reverse "two-hemorrhage" cerebral vasospasm by its systemic use.
Mongrel dogs of either sex weighing 7 to 11 kg were used. All procedures were performed under anesthesia with sodium pentobarbital (20 to 30 mg/kg, intravenous administration) after premedication with ketamine hydrochloride (12 mg/kg, intramuscular administration) and spontaneous respiration through an endotracheal intubation.
The method of inducing a "two-hemorrhage" canine model of subarachnoid hemorrhage was essentially the same as that reported by Varsos et al. (Journal of Neurosurgery, volume 58, p 11-17, 1983); two successive administrations were effected, two days apart (on Day 1 and Day 3), of fresh autogenous blood into the cisterna magna. A control angiogram was taken by a direct puncture of the vertebral artery on Day 1 before the blood injection. The second angiogram was made to confirm the presence of a vasospasm on Day 7.
On Day 7, after the occurrence of a chronic vasospasm was confirmed by the second angiogram, the compounds of the present invention were intrvenously infused from the femoral vein with a Harvard pump over a period of 30 minutes. Angiograms were taken from the initiation of the infusion.
The diameter of the basilar artery was measured on the angiogram by means of a microdensitometer (SAKURA DENSITOMETER PD-7R). The effect on this cerebral vasospasm model of the compounds of the present invention was expressed as an increased percentage of the diameter after the infusion of the compounds of the present invention to that before the infusion.
Effect of the compounds of the present invention on a "two-hemorrhage" canine model of delayed cerebral vesospasm was examined according to the method as mentioned hereinbefore.

[6] = Acute Toxicity; conditions: mouse, in vivo; ddY male mice
Protocol: Acute toxicity of the compounds of the present invention was determined according to the method given below, and the results are shown in Table 15. […] It is known from the results that the acute toxicity of the compounds of the present invention is satisfactorily low.
Using ddY male mice, acute toxicity of the compounds of the present invention was examined according to the method proposed by K. Takagi et al. (K. Takagi and H. Ozawa, "Experimental Techniques in Pharmacology," p200-206 (1960), NANZANDO CO., LTD.).
Acute toxicity test of the compounds of the present invention was effected according to the method as mentioned hereinbefore.

SMILES	EC50 ([1]; concentration of the hydrochloride attaining 50% of complete relaxation, rabbit mesenteric artery contracted with KCl, read-out: ED50 (the source's name))	ΔPmax (maximally reduced blood pressure) [2]	Increase in femoral artery blood flow [3]	Increase in vertebral artery blood flow [4]	Increase in diameter of basilar artery ([5]; 1 mg/kg)	Increase in diameter of basilar artery ([5]; 3 mg/kg)	Increase in diameter of basilar artery ([5]; 10 mg/kg)	LD50 [6]	EC50 ([1]; read-out: ED50)
O=S(=O)(c1cccc2cnccc12)N1CCCNCC1 [Compound (1), 1-(5-isoquinolinesulfonyl)homopiperazine]	0.8 µM	80 mmHg	48%	160%	21%	33%	45%	73.5 mg/kg	–
O=S(=O)(c1cccc2c(O)nccc12)N1CCCNCC1 [Compound (83), 1-(1-hydroxy-5-isoquinolinesulfonyl)homopiperazine]	–	42 mmHg	30%	48%	–	19%	20%	145 mg/kg	3 µM

Source: patent US4678783A, “Substituted isoquinolinesulfonyl compounds” (Asahi Kasei Kogyo Kabushiki Kaisha, priority 1984, dated 1987)
